In patent US8084254B2, “Human blood brain barrier model” (Institut National de la Sante et de la Recherche Medicale …, priority 2004, dated 2011):

Legend:
[1] = brain perfusion of adult rats; reported values (Cisternino et al.); cited from earlier work
[2] = test system: hCMEC/D3 cells
Method: HCMEC/D3 cells were seeded on the filters at a density of 2×10^5 cells/cm^2 in normal culture medium (EGM-2). […] All plates were kept at 37° C. […] PS (clearance) is the permeability surface area product and s is the surface area of the filter (1 cm^2).

[3] = test system: hCMEC/D3 monolayers; assay: Transendothelial electrical resistance (TEER) of hCMEC/D3 monolayers; type: cell-based, human; settings: treatment of hCMEC/D3 monolayers
Method: Transendothelial electrical resistance (TEER) of hCMEC/D3 monolayers on Transwell-Clear™ filters was measured using an Endohm 12 chamber and an Endohmeter (World Precision Instruments Inc., Sarasota, Fla., USA). The baseline resistance of ECM-coated inserts was always subtracted from the resistance obtained in the presence of the endothelial cultures. Primary cultures of rat brain endothelial cells were used as control.

[4] = target: P-gp (Homo sapiens, UniProt P08183); assay: Drug accumulation in hCMEC/D3 cells with P-gp inhibitor; settings: PSC-833 10 μM
Chain of P-gp (P08183 whole entry): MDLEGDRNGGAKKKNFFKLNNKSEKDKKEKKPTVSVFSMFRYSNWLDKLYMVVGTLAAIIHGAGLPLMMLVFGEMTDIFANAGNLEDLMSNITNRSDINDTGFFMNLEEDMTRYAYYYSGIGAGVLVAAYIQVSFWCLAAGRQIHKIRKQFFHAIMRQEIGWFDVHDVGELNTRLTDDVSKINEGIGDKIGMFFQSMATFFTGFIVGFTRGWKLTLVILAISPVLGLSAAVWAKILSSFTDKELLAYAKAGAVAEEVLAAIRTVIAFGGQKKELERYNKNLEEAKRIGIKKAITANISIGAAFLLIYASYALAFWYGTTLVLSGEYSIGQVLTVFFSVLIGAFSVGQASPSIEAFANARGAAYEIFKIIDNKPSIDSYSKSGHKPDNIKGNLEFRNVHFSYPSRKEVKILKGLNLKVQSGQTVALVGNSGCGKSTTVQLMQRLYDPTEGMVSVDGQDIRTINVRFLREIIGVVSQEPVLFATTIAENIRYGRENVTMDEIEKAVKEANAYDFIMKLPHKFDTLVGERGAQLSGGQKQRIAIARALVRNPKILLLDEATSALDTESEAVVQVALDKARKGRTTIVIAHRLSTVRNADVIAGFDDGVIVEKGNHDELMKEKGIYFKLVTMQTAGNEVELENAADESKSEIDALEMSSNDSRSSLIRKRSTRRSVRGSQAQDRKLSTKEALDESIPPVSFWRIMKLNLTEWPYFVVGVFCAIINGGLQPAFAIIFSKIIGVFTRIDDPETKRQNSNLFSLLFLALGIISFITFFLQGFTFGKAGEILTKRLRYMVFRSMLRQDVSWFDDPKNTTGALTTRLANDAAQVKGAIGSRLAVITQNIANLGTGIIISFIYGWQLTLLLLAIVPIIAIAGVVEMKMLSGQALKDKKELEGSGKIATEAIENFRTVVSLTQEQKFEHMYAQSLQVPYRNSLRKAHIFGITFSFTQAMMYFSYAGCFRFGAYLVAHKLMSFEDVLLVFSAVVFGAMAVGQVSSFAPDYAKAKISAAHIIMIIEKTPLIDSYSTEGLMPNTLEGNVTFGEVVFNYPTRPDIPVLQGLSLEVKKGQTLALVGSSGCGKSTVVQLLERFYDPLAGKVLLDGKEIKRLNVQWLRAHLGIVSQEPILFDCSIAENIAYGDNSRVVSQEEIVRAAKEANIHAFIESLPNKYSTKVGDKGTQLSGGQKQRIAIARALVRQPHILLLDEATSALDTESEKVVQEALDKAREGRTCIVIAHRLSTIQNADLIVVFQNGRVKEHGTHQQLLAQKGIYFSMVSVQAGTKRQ
Method: The plates were shaken during both preincubation and incubation periods to reduce the effect of the aqueous boundary layer on drug accumulation. The cells were rapidly washed three times with ice-cold PBS to eliminate the extracellular drug, and then lyed in 100 μl 0.1 M NaOH or 1% Triton-X100.

Row | Compound | In vivo Kin [1] [µL/s/g] | also measured
1 | CC[C@]1(O)C[C@H]2CN(CCc3c([nH]c4ccccc34)[C@@](C(=O)OC)(c3cc4c(cc3OC)N(C=O)[C@H]3[C@@](O)(C(=O)OC)[C@H](OC(C)=O)[C@]5(CC)C=CCN6CC[C@]43[C@@H]65)C2)C1 [Vincristine] | 0.06 | –
2 | COc1cc2c(c(OC)c1OC)-c1ccc(OC)c(=O)cc1[C@@H](NC(C)=O)CC2 [Colchicine] | 0.28 | –
3 | COc1cc2nc(N3CCN(C(=O)c4ccco4)CC3)nc(N)c2cc1OC [Prazosin] | 0.96 | –
4 | Lucifer Yellow | – | Permeability of Lucifer Yellow across hCMEC/D3 [2]: 0.53±0.10 10^−3 cm/min
5 | Nc1ncnc2c1nc(Sc1ccc(Cl)cc1)n2[C@@H]1O[C@@H]2COP(=O)(O)O[C@H]2[C@H]1O [chlorophenylthio-cAMP] | – | Effect on TEER value [3]: failed to significantly increase
6 | CN1CC[C@]23c4c5ccc(O)c4O[C@H]2[C@@H](O[C@@H]2O[C@H](C(=O)O)[C@@H](O)[C@H](O)[C@H]2O)C=C[C@H]3[C@H]1C5 [M6G, morphine-6-glucuronide] | 0.03 | –
7 | CN1C(=O)CN=C(c2ccccc2)c2cc(Cl)ccc21 [Diazepam] | 45 | –
8 | C/C=C/C[C@@H](C)C(=O)[C@H]1C(=O)N[C@@H](C(C)C)C(=O)N(C)CC(=O)N(C)[C@@H](CC(C)C)C(=O)N[C@@H](C(C)C)C(=O)N(C)[C@@H](CC(C)C)C(=O)N[C@@H](C)C(=O)N[C@H](C)C(=O)N(C)[C@@H](CC(C)C)C(=O)N(C)[C@@H](CC(C)C)C(=O)N(C)[C@@H](C(C)C)C(=O)N1C [PSC-833] | – | [3H] daunorubicin uptake by hCMEC/D3 cells [4]: markedly increased; calcein-AM uptake by hCMEC/D3 cells ([4]; calcein-AM 10 μM): markedly increased; rhodamine 123 uptake by hCMEC/D3 cells ([4]; rhodamine 123 10 μM): markedly increased
